# Tests used:
# Format in all cases: biochemical
# [1] = target: T1, KRas G12R (Homo sapiens, UniProt P01116, G12R); experiment: SOS1-Catalyzed Nucleotide Exchange Assay, KRas G12R; details: 10 nM KRas G12R (1-169, GDP-loaded), 200 nM SOS1
# T1 construct: KRas G12R (1-169) loaded with GDP nucleotide; biotin (biotinylated)
# Protocol: (§1) KRas G12R and WT: Compounds were pre-dispensed using acoustic transfer technology into a black, low volume 384-well assay plate. A 10-point dose response of each compound was performed with a 30 μM top dose. Biotinylated KRas WT(1-169) or KRas G12R (1-169) loaded with GDP nucleotide was mixed with Streptavidin-Tb cryptate (Cisbio) in assay buffer (20 mM HEPES pH 7.4, 150 mM NaCl, 2 mM MgCl2, and 0.005% CA680) to produce a 1.5× solution. 10 μL of the 1.5× KRas-cryptate solution was added to wells of a black, low-volume 384-well assay plate. The KRas/cryptate-compound mixture was incubated for 1 hour at room temperature. A 3× solution of SOS1 (564-1049) and EDA-GTP-DY-647P1 (Jena Bioscience) was prepared in assay buffer. 5 μL of the SOS1-labeled GTP solution was added to the wells to initiate the nucleotide exchange reaction. The final concentration of KRas G12R and SOS1 were 10 nM and 200 nM, respectively. The final concentration of KRas WT and SOS1 were 20 nM and 10 nM, respectively. The plate was allowed to incubate for 1 hr, then time resolved fluorescence was read on a PHERAstar plate reader equipped with a filter module with excitation=337 nm and emission 1=620 nm, emission 2=665 nm. The TR-FRET signal was calculated as the ratio of fluorescence intensity [emission 665 nm]/[emission 620 nm]. IC50 values were calculated using a four-parameter, variable response sigmoidal dose response curve fit in PerkinElmer Signals VitroVivo.
# [2] = target: T2, KRas G12V (Homo sapiens, UniProt P01116, G12V); experiment: SOS1-Catalyzed Nucleotide Exchange Assay, KRas G12V (Method 1); details: 5 nM KRas G12V (aa 1-169, GDP-loaded), 50 nM SOS1
# T2 construct: Biotinylated KRas G12V (aa 1-169) loaded with GDP nucleotide; biotin (biotinylated)
# T2 sequence (P01116 1-169 G12V): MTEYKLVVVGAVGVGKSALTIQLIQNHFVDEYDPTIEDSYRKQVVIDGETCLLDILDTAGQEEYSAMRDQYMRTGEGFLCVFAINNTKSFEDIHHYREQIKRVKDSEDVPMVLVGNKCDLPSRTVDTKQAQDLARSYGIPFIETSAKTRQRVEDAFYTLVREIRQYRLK
# Protocol: KRas G12V [Method 1]: Biotinylated KRas G12V (aa 1-169) loaded with GDP nucleotide and Streptavidin-Europium (SA-EU, Columbia Biosciences) were preincubated in assay buffer (20 mM HEPES pH 7.4, 150 mM NaCl, 5 mM MgCl2, 1 mM DTT, 0.01% Brij-35, 0.3 mg/mL BSA) on ice for 30 min. Separately SOS1 (aa 546-1049) and EDA-GTP-DY647P1 (Jena Bioscience) were preincubated in assay buffer on ice for 30 min. After pre-incubation, 5 μL buffer and 5 μL of KRas G12V-SA-Eu were added to each well of a white, low-volume, non-binding 384-well plate. Compounds were then added to respective wells with a Tecan D300e liquid dispenser. A 10-point concentration response curve for each compound was prepared with appropriate top concentration (1 μM, 10 μM, or 300 μM) and incubated for 30 min. 5 μL of SOS1-EDA-GTP-D467P1 was added to start the nucleotide exchange reaction. Final concentration in the assay were 5 nM KRas G12V, 50 nM SOS1 (aa 564-1049). The reaction was allowed to proceed for 60-90 minutes after which the plate was read on a PHERAstar FSX plate reader (exc: 337 nm, em 1: 665 nm, em 2: 620 nm). After normalization of the raw data (ratio of Signal665nm/Signal620nm) the data was fit to a four-parameter logistic curve in GraphPad Prism (v9.4.1).
# [3] = target: T3, KRas WT (Homo sapiens, UniProt P01116); experiment: SOS1-Catalyzed Nucleotide Exchange Assay, KRas WT; details: 20 nM KRas WT (1-169, GDP-loaded), 10 nM SOS1
# T3 construct: Biotinylated KRas WT(1-169); biotin (biotinylated)
# T3 sequence (P01116 1-169): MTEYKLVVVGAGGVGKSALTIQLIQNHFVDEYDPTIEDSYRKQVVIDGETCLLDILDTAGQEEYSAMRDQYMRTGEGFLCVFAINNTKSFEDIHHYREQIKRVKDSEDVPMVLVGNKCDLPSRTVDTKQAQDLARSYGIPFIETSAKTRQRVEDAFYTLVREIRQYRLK
# Protocol: as §1
# T1 sequence (P01116 1-169 G12R): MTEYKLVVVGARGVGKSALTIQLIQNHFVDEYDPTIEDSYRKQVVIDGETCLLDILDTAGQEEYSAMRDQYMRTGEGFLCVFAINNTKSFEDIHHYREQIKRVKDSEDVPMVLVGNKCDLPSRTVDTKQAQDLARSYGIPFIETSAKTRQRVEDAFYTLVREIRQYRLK
SMILES,IC50 [1],IC50 [2],IC50 [3],KRas WT IC50 (nM) [3]
"O=C1CCCCc2c(Cl)cc(O)cc2-c2ncc3c(nc(OC[C@@]45CCCN4C[C@H](F)C5)nc3c2F)N2CCC[C@@H](CCN1)C2 (single isomer, unassigned) [Compound 115c]",≤ 0.1 µM,≤ 100 nM,≤ 0.1 µM,
"O=C1CCCCc2c(Cl)cc(O)cc2-c2ncc3c(nc(OC[C@@]45CCCN4C[C@H](F)C5)nc3c2F)N2CCC[C@H](CCN1)C2 (single isomer, unassigned) [Compound 115b]",≤ 0.1 µM,≤ 100 nM,,++ ++
"Oc1cc2c3c(c(F)ccc3c1)-c1cn(nn1)CCCCC1CCCN(C1)c1nc(OC[C@@]34CCCN3C[C@H](F)C4)nc3c(F)c-2ncc13 (stereo partly drawn) [Compound 125a, (Z)-2^8,3^7-difluoro-2^2-(((2R,7aS)-2-fluorotetrahydro-1H-pyrrolizin-7a(5H)-yl)methoxy)-4^1H-2(4,7)-pyrido[4,3-d]pyrimidina-1(1,3)-piperidina-4(4,1)-triazola-3(1,8)-naphthalenacyclooctaphan-3^3-ol]",10 to 30 µM,10000 to 30000 nM,1 to 10 µM,
"O=C1CCCCc2c(Cl)cc(O)cc2-c2ncc3c(nc(OC[C@@]45CCCN4C[C@H](F)C5)nc3c2F)N2CCCC(CCN1)C2 (stereo partly drawn) [Compound 115a, 3^3-chloro-2^8-fluoro-2^2-(((2R,7aS)-2-fluorotetrahydro-1H-pyrrolizin-7a(5H)-yl)methoxy)-3^5-hydroxy-9-aza-2(4,7)-pyrido[4,3-d]pyrimidina-1(1,3)-piperidina-3(1,2)-benzenacycloundecaphan-8-one]",≤ 0.1 µM,≤ 100 nM,≤ 0.1 µM,
"Oc1cc(Cl)c2c(c1)-c1ncc3c(nc(OC[C@@]45CCCN4C[C@H](F)C5)nc3c1F)N1CCCC(O)(CCCCCC2)C1 (stereo partly drawn) [Compound 151a, 3^3-chloro-2^8-fluoro-2^2-(((2R,7aS)-2-fluorotetrahydro-1H-pyrrolizin-7a(5H)-yl)methoxy)-2(4,7)-pyrido[4,3-d]pyrimidina-1(1,3)-piperidina-3(1,2)-benzenacyclononaphane-1^3,3^5-diol]",≤ 0.1 µM,≤ 100 nM,≤ 0.1 µM,
"O=C1CCc2c(Cl)cc(O)cc2-c2ncc3c(nc(OC[C@@]45CCCN4C[C@H](F)C5)nc3c2F)N2CCCC(CCN1)C2 (stereo partly drawn) [Compound 113a, 3^3-chloro-2^8-fluoro-2^2-(((2R,7aS)-2-fluorotetrahydro-1H-pyrrolizin-7a(5H)-yl)methoxy)-3^5-hydroxy-7-aza-2(4,7)-pyrido[4,3-d]pyrimidina-1(1,3)-piperidina-3(1,2)-benzenacyclononaphan-6-one]",10 to 30 µM,1000 to 10000 nM,1 to 10 µM,
"Oc1cc(Cl)c2c(c1)-c1ncc3c(nc(OC[C@@]45CCCN4C[C@H](F)C5)nc3c1F)N1CCCC(Cc3noc(n3)CCCCCC2)C1 (stereo partly drawn) [Compound 153a, (Z)-1^3-chloro-2^8-fluoro-2^2-(((2R,7aS)-2-fluorotetrahydro-1H-pyrrolizin-7a(5H)-yl)methoxy)-5(3,5)-oxadiazola-2(7,4)-pyrido[4,3-d]pyrimidina-3(1,3)-piperidina-1(1,2)-benzenacycloundecaphan-1^5-ol]",0.1 to 1 µM,100 to 1000 nM,0.1 to 1 µM,
"O=C1CCCCc2c(Cl)cc(O)cc2-c2ncc3c(nc(OC[C@@]45CCCN4C[C@H](F)C5)nc3c2F)N2CCCC(CN1)C2 (stereo partly drawn) [Compound 141a, 3^3-chloro-2^8-fluoro-2^2-(((2R,7aS)-2-fluorotetrahydro-1H-pyrrolizin-7a(5H)-yl)methoxy)-3^5-hydroxy-9-aza-2(4,7)-pyrido[4,3-d]pyrimidina-1(1,3)-piperidina-3(1,2)-benzenacyclodecaphan-8-one]",,≤ 100 nM,,
"Oc1ccc2c(c1)-c1ncc3c(nc(OC[C@@]45CCCN4C[C@H](F)C5)nc3c1F)N1CCCC(CCCCCCC2)C1 (stereo partly drawn) [Compound 143a, 2^8-fluoro-2^2-(((2R,7aS)-2-fluorotetrahydro-1H-pyrrolizin-7a(5H)-yl)methoxy)-2(4,7)-pyrido[4,3-d]pyrimidina-1(1,3)-piperidina-3(1,2)-benzenacyclodecaphan-3^5-ol]",0.1 to 1 µM,100 to 1000 nM,≤ 0.1 µM,
"Oc1cc(Cl)c2c(c1)-c1ncc3c(nc(OC[C@@]45CCCN4C[C@H](F)C5)nc3c1F)N1CCCC(O)(CCCCCCC2)C1 (stereo partly drawn) [Compound 152a, 3^3-chloro-2^8-fluoro-2^2-(((2R,7aS)-2-fluorotetrahydro-1H-pyrrolizin-7a(5H)-yl)methoxy)-2(4,7)-pyrido[4,3-d]pyrimidina-1(1,3)-piperidina-3(1,2)-benzenacyclodecaphane-1^3,3^5-diol]",≤ 0.1 µM,≤ 100 nM,≤ 0.1 µM,
"O=C1CCCCc2c(Cl)cc(O)cc2-c2ncc3c(nc(OC[C@@]45CCCN4C[C@H](F)C5)nc3c2F)N2CCCC(O)(CCN1)C2 (stereo partly drawn) [Compound 140a, 3^3-chloro-2^8-fluoro-2^2-(((2R,7aS)-2-fluorotetrahydro-1H-pyrrolizin-7a(5H)-yl)methoxy)-1^3,3^5-dihydroxy-9-aza-2(4,7)-pyrido[4,3-d]pyrimidina-1(1,3)-piperidina-3(1,2)-benzenacycloundecaphan-8-one]",,≤ 100 nM,,

# Source: patent publication US20260364089A1, “PYRIDOPYRIMIDINE KRAS INHIBITORS” (Treeline Biosciences, Inc., priority 2022, published 2026)
